Measured values: patent US12357631B2 (priority 2018, dated 2025)

Biological target: PB2 CDlp7007 H3N2 (Influenza A virus, UniProt P31345)
Experiment: biochemical
Type: binding

Sequence of PB2 CDlp7007 H3N2 (P31345 whole entry, looked up): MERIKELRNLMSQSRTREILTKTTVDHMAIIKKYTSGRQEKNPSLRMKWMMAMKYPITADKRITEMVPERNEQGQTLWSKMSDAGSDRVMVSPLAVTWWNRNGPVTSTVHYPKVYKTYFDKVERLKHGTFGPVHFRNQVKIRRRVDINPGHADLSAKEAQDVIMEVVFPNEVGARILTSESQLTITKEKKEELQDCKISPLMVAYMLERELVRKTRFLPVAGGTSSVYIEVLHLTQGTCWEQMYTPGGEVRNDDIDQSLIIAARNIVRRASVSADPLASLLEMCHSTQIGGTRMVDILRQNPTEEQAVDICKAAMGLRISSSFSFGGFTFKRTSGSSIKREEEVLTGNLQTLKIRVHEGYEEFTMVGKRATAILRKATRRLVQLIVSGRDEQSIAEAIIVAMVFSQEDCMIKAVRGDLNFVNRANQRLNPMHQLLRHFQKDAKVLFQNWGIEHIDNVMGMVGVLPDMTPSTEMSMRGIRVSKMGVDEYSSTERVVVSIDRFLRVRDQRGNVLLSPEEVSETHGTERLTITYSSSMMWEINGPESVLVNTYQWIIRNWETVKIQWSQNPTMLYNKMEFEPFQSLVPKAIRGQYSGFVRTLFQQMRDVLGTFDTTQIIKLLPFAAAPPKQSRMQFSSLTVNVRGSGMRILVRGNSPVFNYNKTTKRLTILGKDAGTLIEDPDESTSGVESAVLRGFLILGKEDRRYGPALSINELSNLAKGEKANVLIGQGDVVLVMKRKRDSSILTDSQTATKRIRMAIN

`CCOCCOCCOCC(=O)N[C@@H]1CCC[C@H](Nc2nc(-c3c[nH]c4ncc(F)cc34)ncc2F)C1` [Compound A263] gave an IC50 of 25 to 50 µM.

Biological target: PB2 (Influenza A virus, UniProt P03428)
Experiment: biochemical
Type: binding

Sequence of PB2 (P03428 whole entry, looked up): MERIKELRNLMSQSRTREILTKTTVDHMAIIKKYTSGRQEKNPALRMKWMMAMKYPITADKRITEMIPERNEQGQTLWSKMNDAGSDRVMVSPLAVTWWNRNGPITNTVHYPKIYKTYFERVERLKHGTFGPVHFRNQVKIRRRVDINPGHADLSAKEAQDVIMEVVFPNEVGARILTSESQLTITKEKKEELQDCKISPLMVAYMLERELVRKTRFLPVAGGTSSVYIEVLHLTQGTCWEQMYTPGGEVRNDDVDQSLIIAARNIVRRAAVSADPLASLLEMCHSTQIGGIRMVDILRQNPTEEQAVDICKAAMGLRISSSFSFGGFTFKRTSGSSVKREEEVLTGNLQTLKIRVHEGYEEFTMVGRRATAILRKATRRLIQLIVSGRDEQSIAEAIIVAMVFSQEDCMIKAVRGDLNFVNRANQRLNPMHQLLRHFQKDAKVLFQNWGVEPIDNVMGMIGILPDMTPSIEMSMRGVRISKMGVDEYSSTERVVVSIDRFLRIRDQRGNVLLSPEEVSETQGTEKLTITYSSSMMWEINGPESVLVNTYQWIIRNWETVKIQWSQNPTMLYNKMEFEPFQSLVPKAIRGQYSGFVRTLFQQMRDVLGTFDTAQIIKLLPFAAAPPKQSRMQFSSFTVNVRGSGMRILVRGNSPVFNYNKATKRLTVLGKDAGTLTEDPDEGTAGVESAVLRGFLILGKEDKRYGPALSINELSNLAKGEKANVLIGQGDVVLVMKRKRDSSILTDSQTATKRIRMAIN

Compared with `CCOCCOCCOCC(=O)N[C@@H]1CCC[C@H](Nc2nc(-c3c[nH]c4ncc(F)cc34)ncc2F)C1` [Compound A263], `CCOCCOCCOCCNC(=O)N[C@@H]1CCC[C@H](Nc2nc(-c3c[nH]c4ncc(F)cc34)ncc2F)C1` [Compound A167] is higher in EC50: 25 to 50 µM for the first, over 100 µM for the second.

First: COc1ccccc1CNC(=O)OCc1ccnc(C(=O)N[C@H]2CCC[C@@H](Nc3nc(-c4c[nH]c5ncc(F)cc45)ncc3F)C2)c1 [Compound A122]
Second: O=C(NCc1cccnc1)OCc1ccnc(C(=O)N[C@@H]2CCC[C@H](Nc3nc(-c4c[nH]c5ncc(F)cc45)ncc3F)C2)c1 [Compound A93]
The EC50 of the first is higher: over 100 µM for the first, 5 to 25 µM for the second. The second is the more potent here.

`CCOc1ccccc1OCCCCCN(C)C(=O)N[C@H]1CCC[C@@H](Nc2nc(-c3c[nH]c4ncc(F)cc34)ncc2F)C1` [Compound A225] and `CCCCCCOCCCCN(C)C(=O)N[C@H]1CCC[C@@H](Nc2nc(-c3c[nH]c4ncc(F)cc34)ncc2F)C1` [Compound A205] cannot be ordered by EC50: over 100 µM for the first, over 100 µM for the second.

First: CCCCOCCCCc1ccnc(C(=O)N[C@H]2CCC[C@@H](Nc3nc(-c4c[nH]c5ncc(F)cc45)ncc3F)C2)c1 [Compound A31]
Second: CCOCCOCCCc1ccnc(C(=O)N[C@H]2CCC[C@@H](Nc3nc(-c4c[nH]c5ncc(F)cc45)ncc3F)C2)c1 [Compound A24]
The EC50 of the first is higher: over 100 µM for the first, 50 to 100 µM for the second.

`O=C(O)CCCN1CCC[C@H](Nc2nc(-c3c[nH]c4ncc(F)cc34)ncc2F)C1` [Compound C7] and `O=C(O)CN1CCC[C@H](Nc2nc(-c3c[nH]c4ncc(F)cc34)ncc2F)C1` [Compound C12] fall in the same range of EC50: 5 to 25 µM for the first, 5 to 25 µM for the second.

`O=C(N[C@H]1CCC[C@@H](Nc2nc(-c3c[nH]c4ncc(F)cc34)ncc2F)C1)N1CCc2ccccc21` [Compound A14] and `O=C(N[C@H]1CCC[C@@H](Nc2nc(-c3c[nH]c4ncc(F)cc34)ncc2F)C1)c1ccccn1` [Compound A35] fall in the same range of EC50: 50 to 100 µM for the first, 50 to 100 µM for the second.

Compared with `CC(NC(=O)OCc1ccnc(C(=O)N[C@H]2CCC[C@@H](Nc3nc(-c4c[nH]c5ncc(F)cc45)ncc3F)C2)c1)c1ccccc1F` (stereo partly drawn) [Compound A143], `O=C(NCc1ccc(C(=O)O)cc1)OCc1ccnc(C(=O)N[C@@H]2CCC[C@H](Nc3nc(-c4c[nH]c5ncc(F)cc45)ncc3F)C2)c1` [Compound A97] is lower in EC50: over 100 µM for the first, under 5 µM for the second.

Compared with `CCOCc1ccc(C(=O)N[C@@H]2CCC[C@H](Nc3nc(-c4c[nH]c5ncc(F)cc45)ncc3F)C2)nc1` [Compound A41], `CCOCc1ccnc(C(=O)N[C@H]2CCC[C@@H](Nc3nc(-c4c[nH]c5ncc(F)cc45)ncc3F)C2)c1` [Compound A43] is lower in EC50: 50 to 100 µM for the first, 5 to 25 µM for the second. The second is the more potent here.

Compared with `CCOCCOCc1cccc(-c2ccnc(C(=O)N[C@H]3CCC[C@@H](Nc4nc(-c5c[nH]c6ncc(F)cc56)ncc4F)C3)c2)c1` [Compound A90], `CCc1cccc(OCCOCc2ccnc(C(=O)N[C@H]3CCC[C@@H](Nc4nc(-c5c[nH]c6ncc(F)cc56)ncc4F)C3)c2)c1` [Compound A72] is lower in EC50: 50 to 100 µM for the first, 25 to 50 µM for the second.

First: Cc1cc(C(=O)N[C@H]2CCC[C@@H](Nc3nc(-c4c[nH]c5ncc(F)cc45)ncc3F)C2)ccn1 [Compound A51]
Second: Cc1ccc(C(=O)N[C@H]2CCC[C@@H](Nc3nc(-c4c[nH]c5ncc(F)cc45)ncc3F)C2)cn1 [Compound A56]
The EC50 of the first is higher: 5 to 25 µM for the first, under 5 µM for the second. The second is the more potent here.

`CCOC(=O)CCN1CCC[C@@H](Nc2nc(-c3c[nH]c4ncc(F)cc34)ncc2F)C1` [Compound C14] and `CCOC(=O)CCOCCOCCOCC(=O)N1CCC[C@@H](Nc2nc(-c3c[nH]c4ncc(F)cc34)ncc2F)C1` [Compound C6] fall in the same range of EC50: 5 to 25 µM for the first, 5 to 25 µM for the second.

`CCCCCCCOCCCN(C)C(=O)N[C@H]1CCC[C@@H](Nc2nc(-c3c[nH]c4ncc(F)cc34)ncc2F)C1` [Compound A206] and `CCOCCOCCCCCN(C)C(=O)NC1CCC(Nc2nc(-c3c[nH]c4ncc(F)cc34)ncc2F)C1` (stereo not drawn) [Compound A217] cannot be ordered by EC50: over 100 µM for the first, over 100 µM for the second.

First: CCOCc1cccc(COCCN(C)C(=O)N[C@@H]2CCC[C@H](Nc3nc(-c4c[nH]c5ncc(F)cc45)ncc3F)C2)c1 [Compound A184]
Second: CCOCc1cccc(COCCNC(=O)N[C@@H]2CCC[C@H](Nc3nc(-c4c[nH]c5ncc(F)cc45)ncc3F)C2)c1 [Compound A187]
The EC50 of the first is higher: over 100 µM for the first, 50 to 100 µM for the second. The second is the more potent here.

Compared with `CCOCCOCCOCCNC(=O)N(CCCc1ccccc1)[C@@H]1CCC[C@H](Nc2nc(-c3c[nH]c4ncc(F)cc34)ncc2F)C1` [Compound B3], `CCOCCOCCOCCNC(=O)N(Cc1ccccc1)[C@@H]1CCC[C@H](Nc2nc(-c3c[nH]c4ncc(F)cc34)ncc2F)C1` [Compound B1] is higher in EC50: 50 to 100 µM for the first, over 100 µM for the second. The first is the more potent here.

`CCOCCOCCOCCNC(=O)N(CCOCc1ccccc1)[C@@H]1CCC[C@H](Nc2nc(-c3c[nH]c4ncc(F)cc34)ncc2F)C1` [Compound B5] and `CCOCCOCCOCCNC(=O)N[C@@H]1CCC[C@H](Nc2nc(-c3c[nH]c4ncc(F)cc34)ncc2F)C1` [Compound A264] cannot be ordered by EC50: over 100 µM for the first, over 100 µM for the second.

First: O=C(NCCOCCOCCOCCO)N[C@@H]1CCC[C@H](Nc2nc(-c3c[nH]c4ncc(F)cc34)ncc2F)C1 [Compound A166]
Second: NCCOCCOCCOCCNC(=O)N[C@@H]1CCC[C@H](Nc2nc(-c3c[nH]c4ncc(F)cc34)ncc2F)C1 [Compound A170]
The EC50 of the first is lower: 5 to 25 µM for the first, over 100 µM for the second. The first is the more potent here.

First: CCOc1ccc(CNC(=O)OC(C)c2ccnc(C(=O)N[C@H]3CCC[C@@H](Nc4nc(-c5c[nH]c6ncc(F)cc56)ncc4F)C3)c2)cc1 (stereo partly drawn) [Compound A139]
Second: CCOc1ccc(-c2ccnc(C(=O)N[C@@H]3CCC[C@H](Nc4nc(-c5c[nH]c6ncc(F)cc56)ncc4F)C3)c2)cc1 [Compound A62]
The EC50 of the first is higher: over 100 µM for the first, 5 to 25 µM for the second. The second is the more potent here.

First: CCOCCOCCCCCN1CC(=O)N([C@@H]2CCC[C@H](Nc3nc(-c4c[nH]c5ncc(F)cc45)ncc3F)C2)C1=O [Compound A5]
Second: CCOCCOCCCCCNC(=O)N(C)[C@H]1CCC[C@@H](Nc2nc(-c3c[nH]c4ncc(F)cc34)ncc2F)C1 [Compound A219]
The EC50 of the first is higher: over 100 µM for the first, 25 to 50 µM for the second.

First: CCC(CC)OCCNC(=O)OCc1ccnc(C(=O)N[C@H]2CCC[C@@H](Nc3nc(-c4c[nH]c5ncc(F)cc45)ncc3F)C2)c1 [Compound A128]
Second: O=C(O)COCCNC(=O)OCc1ccnc(C(=O)N[C@@H]2CCC[C@H](Nc3nc(-c4c[nH]c5ncc(F)cc45)ncc3F)C2)c1 [Compound A118]
The EC50 of the first is higher: over 100 µM for the first, under 5 µM for the second. The second is the more potent here.

First: O=C(N[C@@H]1CCC[C@H](Nc2nc(-c3c[nH]c4ncc(F)cc34)ncc2F)C1)c1cc(CCCO)ccn1 [Compound A39]
Second: COCCOCc1ccnc(C(=O)N[C@@H]2CCC[C@H](Nc3nc(-c4c[nH]c5ncc(F)cc45)ncc3F)C2)c1 [Compound A45]
The EC50 of the first is lower: under 5 µM for the first, 25 to 50 µM for the second. The first is the more potent here.

`CCOCCOCCCCCN(C(=O)N[C@H]1CCC[C@@H](Nc2nc(-c3c[nH]c4ncc(F)cc34)ncc2F)C1)C(C)C` [Compound A214] and `CCOCCOCCCCCN(CC)C(=O)N[C@H]1CCC[C@@H](Nc2nc(-c3c[nH]c4ncc(F)cc34)ncc2F)C1` [Compound A227] cannot be ordered by EC50: over 100 µM for the first, over 100 µM for the second.

`O=C(N[C@H]1CCC[C@@H](Nc2nc(-c3c[nH]c4ncc(F)cc34)ncc2F)C1)c1cc(-c2ccccc2)ccn1` [Compound A54] and `O=C(N[C@@H]1CCC[C@H](Nc2nc(-c3c[nH]c4ncc(F)cc34)ncc2F)C1)c1cc(-c2ccc(F)cc2)ccn1` [Compound A60] fall in the same range of EC50: 5 to 25 µM for the first, 5 to 25 µM for the second.

Compared with `CN(CCOCCOCCOCCO)C(=O)N[C@@H]1CCC[C@H](Nc2nc(-c3c[nH]c4ncc(F)cc34)ncc2F)C1` [Compound A169], `CN(CCOCCOCCOCCO)C(=O)N[C@H]1CCC[C@@H](Nc2nc(-c3c[nH]c4ncc(F)cc34)ncc2F)C1` [Compound A191] is lower in EC50: 50 to 100 µM for the first, 25 to 50 µM for the second. The second is the more potent here.

Compared with `CCOCCOc1cccc(CC(=O)N[C@H]2CCC[C@@H](Nc3nc(-c4c[nH]c5ncc(F)cc45)ncc3F)C2)c1` [Compound A279], `CCOCCOc1cccc(CC(=O)N[C@@H]2CCC[C@H](Nc3nc(-c4c[nH]c5ncc(F)cc45)ncc3F)C2)c1` [Compound A273] is lower in EC50: over 100 µM for the first, 50 to 100 µM for the second. The second is the more potent here.

`CCOCCCCCOCCNC(=O)N[C@H]1CCC[C@@H](Nc2nc(-c3c[nH]c4ncc(F)cc34)ncc2F)C1` [Compound A192] and `CCOCCOCCCCCN(Cc1ccncc1)C(=O)N[C@H]1CCC[C@@H](Nc2nc(-c3c[nH]c4ncc(F)cc34)ncc2F)C1` [Compound A208] cannot be ordered by EC50: over 100 µM for the first, over 100 µM for the second.

First: O=C(N[C@H]1CCC[C@@H](Nc2nc(-c3c[nH]c4ncc(F)cc34)ncc2F)C1)c1cnc2ccccc2c1 [Compound A55]
Second: O=C(N[C@@H]1CCC[C@H](Nc2nc(-c3c[nH]c4ncc(F)cc34)ncc2F)C1)c1cncc(-c2ccccc2)c1 [Compound A67]
The EC50 of the first is lower: 5 to 25 µM for the first, over 100 µM for the second. The first is the more potent here.

First: O=C(NCCOCC(F)(F)F)OCc1ccnc(C(=O)N[C@H]2CCC[C@@H](Nc3nc(-c4c[nH]c5ncc(F)cc45)ncc3F)C2)c1 [Compound A114]
Second: O=C(O)CNCCNC(=O)OCc1ccnc(C(=O)N[C@@H]2CCC[C@H](Nc3nc(-c4c[nH]c5ncc(F)cc45)ncc3F)C2)c1 [Compound A110]
The EC50 of the first is higher: 50 to 100 µM for the first, 5 to 25 µM for the second.

`CCOCCCc1cccc(CCN(C)C(=O)N[C@H]2CCC[C@@H](Nc3nc(-c4c[nH]c5ncc(F)cc45)ncc3F)C2)n1` [Compound A213] and `CCOCCOCCc1cccc(N(C)C(=O)N[C@H]2CCC[C@@H](Nc3nc(-c4c[nH]c5ncc(F)cc45)ncc3F)C2)c1` [Compound A212] cannot be ordered by EC50: over 100 µM for the first, over 100 µM for the second.

First: CCOCc1cccc(COCc2ccnc(C(=O)N[C@H]3CCC[C@@H](Nc4nc(-c5c[nH]c6ncc(F)cc56)ncc4F)C3)c2)c1 [Compound A71]
Second: CCOCCOCCCc1ccnc(C(=O)N[C@H]2CCC[C@@H](Nc3nc(-c4c[nH]c5ncc(F)cc45)ncc3F)C2)c1 [Compound A288]
The EC50 of the first is higher: over 100 µM for the first, 5 to 25 µM for the second.

`O=C(NCC1CCCO1)OCc1ccnc(C(=O)N[C@H]2CCC[C@@H](Nc3nc(-c4c[nH]c5ncc(F)cc45)ncc3F)C2)c1` (stereo partly drawn) [Compound A106] and `O=C(NCC(=O)N1CCOCC1)OCc1ccnc(C(=O)N[C@H]2CCC[C@@H](Nc3nc(-c4c[nH]c5ncc(F)cc45)ncc3F)C2)c1` [Compound A121] fall in the same range of EC50: 5 to 25 µM for the first, 5 to 25 µM for the second.

First: CCOc1cccc(-c2cncc(C(=O)N[C@@H]3CCC[C@H](Nc4nc(-c5c[nH]c6ncc(F)cc56)ncc4F)C3)c2)c1 [Compound A68]
Second: CCOCCOCCCC1CCCN(C(=O)N[C@@H]2CCC[C@H](Nc3nc(-c4c[nH]c5ncc(F)cc45)ncc3F)C2)C1 (stereo partly drawn) [Compound A4]
The EC50 of the first is lower: 25 to 50 µM for the first, 50 to 100 µM for the second.
